Where two headings read alike, the source gives them in different places. One block for each molecule: values may come before it.
Tests used:
[1] = target: T1, GST-CDK10/Strep2-CycM (CDK10/CycM) (Homo sapiens, UniProt Q15131); test: ADP-Glo luminescent kinase assay, CDK10tide (Jar1) peptide; assay type: biochemical
T1 construct: GST-CDK10 co-expressed with Strep2-CycM (pFastBacDual) in Sf9 cells, glutathione sepharose purified heterodimer, tags kept; with Cyclin-Q
From the text: ADP-Glo luminescent kinase assay, CDK10tide (Jar1) peptide on GST-CDK10/Strep2-CycM (CDK10/CycM)

[2] = target: T1, GST-CDK10/Strep2-CycM (CDK10/CycM); test: in vitro kinase assay; assay type: biochemical; conditions: for inhibition at 1 µM: read-out: % inhibition at 1 uM
[3] = substrate: Nc1ncnc2c1ncn2[C@@H]1O[C@H](COP(=O)(O)OP(=O)(O)OP(=O)(O)O)[C@@H](O)[C@H]1O; test: ADP-Glo luminescent kinase assay, ATP titration, Michaelis-Menten; assay type: biochemical, Homo sapiens; conditions: […] CDK10tide, […] enzyme, […] ATP, […] MgCl2, pH […]
[4] = read-out: CDK10/CycM (measured herein)

T1 sequence (Q8N1B3 whole entry partner, one chain of several): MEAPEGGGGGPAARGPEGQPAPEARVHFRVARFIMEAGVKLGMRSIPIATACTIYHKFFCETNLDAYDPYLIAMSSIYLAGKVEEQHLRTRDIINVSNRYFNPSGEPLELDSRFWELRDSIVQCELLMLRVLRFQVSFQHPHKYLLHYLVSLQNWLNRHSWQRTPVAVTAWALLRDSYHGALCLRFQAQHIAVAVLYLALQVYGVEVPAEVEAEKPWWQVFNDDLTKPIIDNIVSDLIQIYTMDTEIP

IC50 [1, 4]: 0.036 µM
Molecule: CC(=O)N[C@@H]1CCC[C@H](C(=O)Nc2cc(-c3cnn4c3CC(C)(C)C4)c(Cl)cn2)C1 [AZD4573]

inhibition at 1 µM [2]: < 50%
Molecule: CC[C@H](CO)Nc1nc(NCc2ccc(-c3ccccn3)cc2)c2ncn(C(C)C)c2n1 [CR8]

IC50 ([1]; read-out: CDK9/CycT1 (measured herein)): 0.013 µM
Molecule: CCc1cnn2c(NCc3ccc[n+]([O-])c3)cc(N3CCCC[C@H]3CCO)nc12 [dinaciclib]

inhibition at 1 µM [2]: < 50%
Molecule: Cn1cnc2c(NCc3ccccc3)nc(NCCO)nc21 [olomoucine]

inhibition at 1 µM [2]: < 50%
Molecule: CC(=O)c1c(C)c2cnc(Nc3ccc(N4CCNCC4)cn3)nc2n(C2CCCC2)c1=O [palbociclib]

IC50 [1, 4]: 0.28 µM
Molecule: CN1CC[C@H](c2c(O)cc(O)c3c(=O)cc(-c4ccccc4Cl)oc23)[C@H]1CO [riviciclib]

Molecule: CC[C@H](CO)Nc1nc(NCc2ccccc2)c2ncn(C(C)C)c2n1 [roscovitine]
inhibition at 1 µM [2]: < 50%

% inhibition at 1 uM ([2]; data not shown, text: not greater than […]): < 50%
Molecule: meriolin

B1: GST-CDK10/Strep2-CycM (CDK10/CycM) (Homo sapiens) (protein)
chain: MAEPDLECEQIRLKCIRKEGFFTVPPEHRLGRCRSVKEFEKLNRIGEGTYGIVYRARDTQTDEIVALKKVRMDKEKDGIPISSLREITLLLRLRHPNIVELKEVVVGNHLESIFLVMGYCEQDLASLLENMPTPFSEAQVKCIVLQVLRGLQYLHRNFIIHRDLKVSNLLMTDKGCVKTADFGLARAYGVPVKPMTPKVVTLWYRAPELLLGTTTQTTSIDMWAVGCILAELLAHRPLLPGTSEIHQIDLIVQLLGTPSENIWPGFSKLPLVGQYSLRKQPYNNLKHKFPWLSEAGLRLLHFLFMYDPKKRATAGDCLESSYFKEKPLPCEPELMPTFPHHRNKRAAPATSEGQSKRCKP
notes: GST-CDK10 co-expressed with Strep2-CycM (pFastBacDual) in Sf9 cells, glutathione sepharose purified heterodimer, tags kept; with Cyclin-Q
Km [3]: 177 µM
